Source: US11505548B2, “Heterocyclic compounds and their use for treatment of helminthic infections and diseases” (Celgene Corporation, priority 2019, dated 2022)

tested on: microfilariae of Dirofilaria immitis; assay: Dirofilaria immitis, Microfilaria (DiMF) Assay; assay type: cell-based; conditions: read-out: D. immitis activity level (IC50 or MED)
Method: Heartworm Screen Dirofilaria immitis (D. immitis)
Dirofilaria immitis, Microfilaria (DiMF) Assay.
Compounds were dissolved and serially diluted in DMSO. Aliquots were spotted to the empty wells of assay plates. Media and microfilariae of Dirofilaria immitis were added to each well to dilute the test compounds to the desired concentrations. Assay plates were incubated for approximately 72 hours, and the larvae in each well were observed microscopically for drug effect. Microfilariae in each well were assessed subjectively for survival or paralysis, and results were reported as Minimum Effective Dose (MED).
Active and selective (DiL4 vs. DiMF potency) example compounds were subsequently evaluated in heartworm positive dog studies to correlate the in vitro selectivity profile with in vivo effects on circulating microfilariae.

First: FC(F)(F)c1ccc(Nc2nc(-c3ccccn3)ns2)nc1 [Cmpd 1]
Second: FC(F)(F)c1cncc(Nc2nc(-c3ccccn3)ns2)c1 [Cmpd 3, 3-(pyridin-2-yl)-N-(5-(trifluoromethyl)pyridin-3-yl)-1,2,4-thiadiazol-5-amine]
The IC50 of the first is lower: < 200 nM for the first, 500 to 5000 nM for the second. The first is the more potent here.

`COc1ccc(Nc2nc(-c3ccccn3)ns2)nc1` [Cmpd 2, N-(5-methoxy-pyridin-2-yl)-3-(pyridin-2-yl)-1,2,4-thiadiazol-5-amine] and `c1ccc(-c2nsc(Nc3ccc(OC4CCOCC4)cn3)n2)nc1` [Cmpd 9, 3-(pyridin-2-yl)-N-(5-(tetrahydro-2H-pyran-4-yloxy)pyridin-2-yl)-1,2,4-thiadiazol-5-amine] fall in the same range of IC50: 500 to 5000 nM for the first, 500 to 5000 nM for the second.

`c1ccc(-c2nsc(Nc3ccc(N4CCCCC4)cn3)n2)nc1` [Cmpd 6, N-(5-(piperidin-1-yl)pyridin-2-yl)-3-(pyridin-2-yl)-1,2,4-thiadiazol-5-amine] and `c1ccc(-c2nsc(Nc3ccc(N4CCCC4)cn3)n2)nc1` [Cmpd 8, 3-(pyridin-2-yl)-N-(5-(pyrrolidin-1-yl)pyridin-2-yl)-1,2,4-thiadiazol-5-amine] fall in the same range of IC50: 500 to 5000 nM for the first, 500 to 5000 nM for the second.

`Cc1ccnc(-c2nsc(Nc3ncccc3F)n2)c1` [Compound 12, N-(3-fluoropyridin-2-yl)-3-(4-methylpyridin-2-yl)-1,2,4-thiadiazol-5-amine] and `CNc1cccnc1Nc1nc(-c2cc(C)ccn2)ns1` [Compound 23, N3-methyl-N2-(3-(4-methylpyridin-2-yl)-1,2,4-thiadiazol-5-yl) pyridine-2,3-diamine] fall in the same range of IC50: 200 to 500 nM for the first, 200 to 500 nM for the second.

`Cc1ccnc(-c2noc(Nc3ncccc3F)n2)c1` [Compound 14, N-(3-fluoro-pyridin-2-yl)-3-(4-methylpyridin-2-yl)-1,2,4-oxadiazol-5-amine] and `Cc1cccnc1Nc1nc(-c2ccc(OC(C)C)cn2)no1` [Compound 20, 3-(5-isopropoxy-pyridin-2-yl)-N-(3-methyl-pyridin-2-yl)-1,2,4-oxadiazol-5-amine] fall in the same range of IC50: 500 to 5000 nM for the first, 500 to 5000 nM for the second.

First: Cc1cccnc1Nc1nc(-c2ccc(OC3CCOCC3)cn2)ns1 [Compound 15, N-(3-methyl-pyridin-2-yl)-3-(5-(tetrahydro-2H-pyran-4-yloxy)pyridin-2-yl)-1,2,4-thiadiazol-5-amine]
Second: Cc1cccnc1Nc1nc(-c2ccc(OC3CC3)cn2)ns1 [Compound 38, 3-(5-cyclo-propoxypyridin-2-yl)-N-(3-methyl-pyridin-2-yl)-1,2,4-thiadiazol-5-amine]
The IC50 of the first is higher: 500 to 5000 nM for the first, 200 to 500 nM for the second.

`Cc1cccnc1Nc1nc(-c2ccc(OC3CCOCC3)cn2)no1` [Compound 16, N-(3-methyl-pyridin-2-yl)-3-(5-(tetrahydro-2H-pyran-4-yloxy)pyridin-2-yl)-1,2,4-oxadiazol-5-amine] and `Cc1cccnc1Nc1nc(-c2ccc(OC3CCN(C4CC4)CC3)cn2)ns1` [Compound 45, 3-(5-(1-cyclo-propylpiperidin-4-yloxy)pyridin-2-yl)-N-(3-methylpyridin-2-yl)-1,2,4-thiadiazol-5-amine] fall in the same range of IC50: 500 to 5000 nM for the first, 500 to 5000 nM for the second.

First: Cc1cccnc1Nc1nc(-c2ccc(OC(C)C)cn2)ns1 [Compound 19, 3-(5-isopropoxy-pyridin-2-yl)-N-(3-methyl-pyridin-2-yl)-1,2,4-thiadiazol-5-amine]
Second: CC(C)Oc1ccc(-c2nsc(Nc3ncccc3N(C)C)n2)nc1 [Compound 56, N2-(3-(5-isoprop-oxypyridin-2-yl)-1,2,4-thiadiazol-5-yl)-N3,N3 - dimethyl-pyridine-2,3-diamine]
The IC50 of the first is lower: < 200 nM for the first, 200 to 500 nM for the second. The first is the more potent here.

Compared with `Cc1cccnc1Nc1nc(-c2cc(C#N)ccn2)ns1` [Compound 40, 2-(5-(3-methyl-pyridin-2-ylamino)-1,2,4-thiadiazol-3-yl)isonicotino-nitrile], `Cc1cccnc1Nc1nc(-c2cc(OC3CC3)ccn2)ns1` [Compound 65, 3-(4-cycloprop-oxypyridin-2-yl)-N-(3-methyl-pyridin-2-yl)-1,2,4-thiadiazol-5-amine] is lower in IC50: 500 to 5000 nM for the first, < 200 nM for the second. The second is the more potent here.

`Cc1cccnc1-c1noc(Nc2ccc(N3CCCC3)cn2)n1` [Compound 42, 3-(3-methyl-pyridin-2-yl)-N-(5-(pyrrolidin-1-yl)pyridin-2-yl)-1,2,4-oxadiazol-5-amine] and `Cc1cccnc1-c1nsc(Nc2ccc(N3CCCC3)cn2)n1` [Compound 51, 3-(3-methyl-pyridin-2-yl)-N-(5-(pyrrolidin-1-yl)pyridin-2-yl)-1,2,4-thiadiazol-5-amine] fall in the same range of IC50: 500 to 5000 nM for the first, 500 to 5000 nM for the second.

Compared with `Cc1cccnc1Nc1nc(-c2ccc(OC(F)(F)F)cn2)ns1` [Compound 52, N-(3-methyl-pyridin-2-yl)-3-(5-(trifluoro-methoxy)pyridin-2-yl)-1,2,4-thiadiazol-5-amine], `CC(C)Oc1ccc(-c2nsc(Nc3ncccc3C(F)(F)F)n2)nc1` [Compound 54, 3-(5-isopropoxy-pyridin-2-yl)-N-(3-(trifluoromethyl)pyridin-2-yl)-1,2,4-thiadiazol-5-amine] is lower in IC50: 500 to 5000 nM for the first, < 200 nM for the second. The second is the more potent here.

`CN1CCC(Oc2ccc(-c3nsc(Nc4ncccc4C(F)(F)F)n3)nc2)CC1` [Compound 55, 3-(5-(1-methyl-piperidin-4-yloxy)pyridin-2-yl)-N-(3-(trifluoromethyl)pyridin-2-yl)-1,2,4-thiadiazol-5-amine] and `CN1CCC(Oc2ccnc(-c3nsc(Nc4ncccc4C(F)(F)F)n3)c2)CC1` [Compound 62, 3-(4-(1-methyl-piperidin-4-yloxy)pyridin-2-yl)-N-(3-(trifluoromethyl)pyridin-2-yl)-1,2,4-thiadiazol-5-amine] fall in the same range of IC50: 500 to 5000 nM for the first, 500 to 5000 nM for the second.

`CC(C)c1ccnc(-c2nsc(Nc3ncccc3C(F)(F)F)n2)c1` [Compound 67, 3-(4-isopropyl-pyridin-2-yl)-N-(3-(trifluoromethyl)pyridin-2-yl)-1,2,4-thiadiazol-5-amine] and `CC(C)c1ccnc(-c2nsc(Nc3cc(C(F)(F)F)ccn3)n2)c1` [Compound 86, 3-(4-isopropyl-pyridin-2-yl)-N-(4-(trifluoromethyl)pyridin-2-yl)-1,2,4-thiadiazol-5-amine] cannot be ordered by IC50: < 200 nM for the first, < 200 nM for the second.

`COc1ccc(-c2nsc(Nc3ccc(C4CCCC4)cn3)n2)nc1` [Compound 68, N-(5-cyclopentyl-pyridin-2-yl)-3-(5-methoxypyridin-2-yl)-1,2,4-thiadiazol-5-amine] and `COc1cccnc1Nc1nc(-c2ccc(OC3CC3)cn2)ns1` [Compound 80, 3-(5-cycloprop-oxypyridin-2-yl)-N-(3-methoxypyridin-2-yl)-1,2,4-thiadiazol-5-amine] fall in the same range of IC50: 500 to 5000 nM for the first, 500 to 5000 nM for the second.

Compared with `CC(C)Oc1ccc(-c2n[nH]c(Nc3ncccc3C(F)(F)F)n2)nc1` [Compound 70, N-(3-(5-isopropoxy-pyridin-2-yl)-1H-1,2,4-triazol-5-yl)-3-(trifluoromethyl) pyridin-2-amine], `CC(C)Oc1ccc(-c2nsc(Nc3ncccc3C3CC3)n2)nc1` [Compound 76, N-(3-cyclopropyl-pyridin-2-yl)-3-(5-isopropoxy-pyridin-2-yl)-1,2,4-thiadiazol-5-amine] is lower in IC50: 500 to 5000 nM for the first, < 200 nM for the second.

First: Cc1cccnc1Nc1nc(-c2ccc(OCC3CC3)cn2)ns1 [Compound 73, 3-(5-(cyclopropyl-methoxy)pyridin-2-yl)-N-(3-methylpyridin-2-yl)-1,2,4-thiadiazol-5-amine]
Second: CC(C)c1cccnc1Nc1nc(-c2ccc(OC3CC3)cn2)ns1 [Compound 74, 3-(5-cyclopropoxy-pyridin-2-yl)-N-(3-isopropylpyridin-2-yl)-1,2,4-thiadiazol-5-amine]
The IC50 of the first is higher: 200 to 500 nM for the first, < 200 nM for the second. The second is the more potent here.

`CN(C)c1cccnc1Nc1nc(-c2ccc(OC3CC3)cn2)ns1` [Compound 78, N2-(3-(5-cyclopropoxy-pyridin-2-yl)-1,2,4-thiadiazol-5-yl)-N3,N3-dimethyl-pyridine-2,3-diamine] and `Cc1cccnc1Nc1nc(-c2ccc(O[C@@H]3CCN(C4CC4)C[C@H]3F)cn2)ns1` [Compound 91, 3-(5-((3R,4R)-1-cyclopropyl-3-fluoro-piperidin-4-yloxy)pyridin-2-yl)-N-(3-methylpyridin-2-yl)-1,2,4-thiadiazol-5-amine] fall in the same range of IC50: 500 to 5000 nM for the first, 500 to 5000 nM for the second.

`Cc1cccnc1Nc1nc(-c2ccc(OC3CCN(C4CC4)CC3(F)F)cn2)ns1` (stereo not shown) [Compound 83, 3-(5-(1-cyclo-propyl-3,3-difluoro-piperidin-4-yloxy)pyridin-2-yl)-N-(3-methylpyridin-2-yl)-1,2,4-thiadiazol-5-amine] and `CC(C)c1cccnc1Nc1nc(-c2ccc(OC3CCN(C4CC4)CC3(F)F)cn2)ns1` (stereo not shown) [Compound 87, 3-(5-(1-cyclo-propyl-3,3-difluoro-piperidin-4-yloxy)pyridin-2-yl)-N-(3-isopropylpyridin-2-yl)-1,2,4-thiadiazol-5-amine] fall in the same range of IC50: 200 to 500 nM for the first, 200 to 500 nM for the second.

`FC(F)(F)c1cccnc1Nc1nc(-c2cc(C3CC3)ccn2)ns1` [Compound 84, 3-(4-cyclopropyl-pyridin-2-yl)-N-(3-(trifluoromethyl)pyridin-2-yl)-1,2,4-thiadiazol-5-amine] and `FC(F)(F)c1ccnc(Nc2nc(-c3cc(C4CC4)ccn3)ns2)c1` [Compound 85, 3-(4-cyclopropyl-pyridin-2-yl)-N-(4-(trifluoromethyl)pyridin-2-yl)-1,2,4-thiadiazol-5-amine] cannot be ordered by IC50: < 200 nM for the first, < 200 nM for the second.

Compared with `CC(C)c1cccnc1Nc1nc(-c2ccc(O[C@@H]3CCN(C4CC4)C[C@@H]3F)cn2)ns1` [Compound 89, 3-(5-((3S,4R)-1-cyclopropyl-3-fluoro-piperidin-4-yloxy)pyridin-2-yl)-N-(3-isopropylpyridin-2-yl)-1,2,4-thiadiazol-5-amine], `Cc1cccnc1Nc1nc(-c2ncc(OC3CC3)cc2C(F)(F)F)ns1` [Compound 93, 3-(5-cyclo-propoxy-3-(trifluoromethyl)pyridin-2-yl)-N-(3-methyl-pyridin-2-yl)-1,2,4-thiadiazol-5-amine] is higher in IC50: < 200 nM for the first, 500 to 5000 nM for the second.
